Measurements reported in PubChem BioAssay (NCI).
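Protocol summary: plate cells (96-well), add compound at 5 concentrations, incubate 48 h, interpolate endpoints linearly. TGI marks complete inhibition of growth.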

What was measured:
Experiment in all cases: NCI-60 cell line screen, 48 h
IGROV1 ovarian = test system: IGROV1 ovarian
UACC-257 melanoma = test system: UACC-257 melanoma
SNB-75 CNS = test system: SNB-75 CNS
RPMI-8226 leukemia = test system: RPMI-8226 leukemia
M14 melanoma = test system: M14 melanoma
SF-295 CNS = test system: SF-295 CNS
HOP-62 NSCLC = test system: HOP-62 NSCLC
HT29 colon = test system: HT29 colon
K-562 leukemia = test system: K-562 leukemia
NCI-H23 lung = test system: NCI-H23 lung
ACHN renal = test system: ACHN renal
RXF 393 renal = test system: RXF 393 renal
SK-MEL-28 melanoma = test system: SK-MEL-28 melanoma
SF-539 CNS = test system: SF-539 CNS
SK-MEL-2 melanoma = test system: SK-MEL-2 melanoma
OVCAR-4 ovarian = test system: OVCAR-4 ovarian
DMS 114 small cell lung = test system: DMS 114 small cell lung
MOLT-4 leukemia = test system: MOLT-4 leukemia
SF-268 CNS = test system: SF-268 CNS
NCI-H460 lung = test system: NCI-H460 lung
HOP-92 NSCLC = test system: HOP-92 NSCLC
MALME-3M melanoma = test system: MALME-3M melanoma
CCRF-CEM leukemia = test system: CCRF-CEM leukemia
UACC-62 melanoma = test system: UACC-62 melanoma
COLO 205 colon = test system: COLO 205 colon
HCT-116 colon = test system: HCT-116 colon
OVCAR-3 ovarian = test system: OVCAR-3 ovarian
SNB-78 CNS = test system: SNB-78 CNS
LXFL 529 NSCLC = test system: LXFL 529 NSCLC
UO-31 renal = test system: UO-31 renal
M19-MEL melanoma = test system: M19-MEL melanoma
HCC-2998 colon = test system: HCC-2998 colon
SNB-19 CNS = test system: SNB-19 CNS
NCI-H522 lung = test system: NCI-H522 lung
SK-OV-3 ovarian = test system: SK-OV-3 ovarian
KM12 colon = test system: KM12 colon
MDA-MB-435 = test system: MDA-MB-435
DU-145 prostate = test system: DU-145 prostate
MDA-MB-231 breast = test system: MDA-MB-231 breast
EKVX NSCLC = test system: EKVX NSCLC
SW-620 colon = test system: SW-620 colon
LOX IMVI melanoma = test system: LOX IMVI melanoma
OVCAR-5 ovarian = test system: OVCAR-5 ovarian
CAKI-1 renal = test system: CAKI-1 renal
HCT-15 colon = test system: HCT-15 colon
NCI/ADR-RES ovarian = test system: NCI/ADR-RES ovarian
SN12C renal = test system: SN12C renal
OVCAR-8 ovarian = test system: OVCAR-8 ovarian
SK-MEL-5 melanoma = test system: SK-MEL-5 melanoma
SR leukemia = test system: SR leukemia
BT-549 breast = test system: BT-549 breast
HS 578T breast = test system: HS 578T breast
MCF7 breast = test system: MCF7 breast
786-0 renal = test system: 786-0 renal
PC-3 prostate = test system: PC-3 prostate
U251 CNS = test system: U251 CNS
HL-60(TB) leukemia = test system: HL-60(TB) leukemia
TK-10 renal = test system: TK-10 renal
A498 renal = test system: A498 renal
A549 NSCLC = test system: A549 NSCLC
NCI-H226 lung = test system: NCI-H226 lung
MDA-N = test system: MDA-N
T-47D breast = test system: T-47D breast

For `CCN(CC)CCN=Cc1c(O)c(O)c(C(C)C)c2cc(C)c(-c3c(C)cc4c(C(C)C)c(O)c(O)c(C=NCCN(CC)CC)c4c3O)c(O)c12`, which TGI (IGROV1 ovarian) is on record?
Its TGI is 12.5 µM.

And the TGI (UACC-257 melanoma)?
Its TGI is 18.8 µM.

What about the TGI (SNB-75 CNS) of the same compound?
Its TGI is 22.6 µM.

And the TGI (RPMI-8226 leukemia)?
The TGI was 6.16 µM.

And the TGI (M14 melanoma)?
Its TGI is 4.06 µM.

And the TGI (SF-295 CNS)?
The TGI was 4.45 µM.

What about the TGI (HOP-62 NSCLC) of the same compound?
The TGI was 8.13 µM.

What about the TGI (HT29 colon) of the same compound?
Its TGI is 3.83 µM.

And the TGI (K-562 leukemia)?
Its TGI is 3 µM.

And the TGI (NCI-H23 lung)?
The TGI was 8.04 µM.

And the TGI (ACHN renal)?
Its TGI is 8.37 µM.

And the TGI (RXF 393 renal)?
Its TGI is 5.31 µM.

And the TGI (SK-MEL-28 melanoma)?
Its TGI is 12.5 µM.

And the TGI (SF-539 CNS)?
Its TGI is 5.65 µM.

What about the TGI (SK-MEL-2 melanoma) of the same compound?
The TGI was 5.17 µM.

And the TGI (OVCAR-4 ovarian)?
The TGI was 10.1 µM.

And the TGI (DMS 114 small cell lung)?
The TGI was 3.76 µM.

And the TGI (MOLT-4 leukemia)?
Its TGI is 4.36 µM.

What about the TGI (SF-268 CNS) of the same compound?
The TGI was 34.6 µM.

And the TGI (NCI-H460 lung)?
Its TGI is 13.7 µM.

What about the TGI (HOP-92 NSCLC) of the same compound?
Its TGI is 7.96 µM.

What about the TGI (MALME-3M melanoma) of the same compound?
The TGI was 17 µM.

What about the TGI (CCRF-CEM leukemia) of the same compound?
Its TGI is 1.45 µM.

And the TGI (UACC-62 melanoma)?
Its TGI is 6.03 µM.

What about the TGI (COLO 205 colon) of the same compound?
The TGI was 14.5 µM.

What about the TGI (HCT-116 colon) of the same compound?
The TGI was 6.02 µM.

And the TGI (OVCAR-3 ovarian)?
Its TGI is 4.61 µM.

And the TGI (SNB-78 CNS)?
The TGI was 5.6 µM.

What about the TGI (LXFL 529 NSCLC) of the same compound?
The TGI was 3.11 µM.

And the TGI (UO-31 renal)?
Its TGI is 8.8 µM.

What about the TGI (M19-MEL melanoma) of the same compound?
The TGI was 14.1 µM.

What about the TGI (HCC-2998 colon) of the same compound?
The TGI was 9.62 µM.

What about the TGI (SNB-19 CNS) of the same compound?
Its TGI is 8.86 µM.

And the TGI (NCI-H522 lung)?
Its TGI is 3.4 µM.

What about the TGI (SK-OV-3 ovarian) of the same compound?
Its TGI is 12.4 µM.

And the TGI (KM12 colon)?
The TGI was 3.92 µM.

Which results are given for `N#CC1=C(C#N)/C(=C(\C#N)C(C#N)C#N)N=C1N`?
TGI (IGROV1 ovarian): > 100 µM; TGI (UACC-257 melanoma): 51.7 µM; TGI (MDA-MB-435): 36.7 µM; TGI (SNB-75 CNS): > 81.8 µM; TGI (DU-145 prostate): > 100 µM; TGI (MDA-MB-231 breast): > 100 µM; TGI (RPMI-8226 leukemia): > 81.3 µM; TGI (M14 melanoma): 34.3 µM; TGI (SF-295 CNS): > 100 µM; TGI (HOP-62 NSCLC): > 66.6 µM; TGI (EKVX NSCLC): > 100 µM; TGI (SW-620 colon): > 100 µM; TGI (LOX IMVI melanoma): 55.8 µM; TGI (OVCAR-5 ovarian): > 93.9 µM; TGI (HT29 colon): 62.1 µM; TGI (K-562 leukemia): > 100 µM; TGI (CAKI-1 renal): > 100 µM; TGI (HCT-15 colon): 64.3 µM; TGI (NCI-H23 lung): > 100 µM; TGI (ACHN renal): > 100 µM; TGI (RXF 393 renal): > 100 µM; TGI (SK-MEL-28 melanoma): 52 µM; TGI (NCI/ADR-RES ovarian): > 100 µM; TGI (SN12C renal): > 100 µM; TGI (SF-539 CNS): 54.5 µM; TGI (SK-MEL-2 melanoma): 31.6 µM; TGI (OVCAR-4 ovarian): > 100 µM; TGI (OVCAR-8 ovarian): > 100 µM; TGI (SK-MEL-5 melanoma): 31.8 µM; TGI (MOLT-4 leukemia): 64.4 µM; TGI (SR leukemia): 66.7 µM; TGI (BT-549 breast): > 78.7 µM; TGI (SF-268 CNS): > 100 µM; TGI (NCI-H460 lung): > 100 µM; TGI (HOP-92 NSCLC): > 75 µM; TGI (MALME-3M melanoma): 38.2 µM; TGI (CCRF-CEM leukemia): 50.7 µM; TGI (UACC-62 melanoma): 30.3 µM; TGI (HS 578T breast): > 100 µM; TGI (MCF7 breast): > 100 µM; TGI (786-0 renal): > 100 µM; TGI (COLO 205 colon): 57.3 µM; TGI (HCT-116 colon): > 100 µM; TGI (OVCAR-3 ovarian): > 100 µM; TGI (UO-31 renal): > 100 µM; TGI (HCC-2998 colon): > 100 µM; TGI (PC-3 prostate): > 100 µM; TGI (U251 CNS): > 100 µM; TGI (HL-60(TB) leukemia): 39.1 µM; TGI (TK-10 renal): > 68.3 µM; TGI (SNB-19 CNS): > 100 µM; TGI (NCI-H522 lung): 47.7 µM; TGI (A498 renal): 65.4 µM; TGI (SK-OV-3 ovarian): > 100 µM; TGI (A549 NSCLC): 54.9 µM; TGI (KM12 colon): > 100 µM; TGI (NCI-H226 lung): 97.3 µM; TGI (MDA-N): 30.3 µM; TGI (T-47D breast): > 100 µM
